Several values for one entry are separate records, joined by “and”; a condition that tells them apart may be missing. Equal values may be shown once. Read-outs that look alike come from different tables or passages of the source.
How the values were obtained:
AChE from electric eel = target: T1, AChE from electric eel (Electrophorus electricus, UniProt O42275); assay: biochemical; assay type: biochemical
T1 construct: purchased Sigma-Aldrich Co., St. Louis, USA
Description: (§1) The AChE- and BChE-inhibitory, MTT, and Th T assays were analyzed using a UV–visible (VIS) spectrophotometer (Biotek, EPOCH2, Winooski, VT, USA), ensuring accurate measurements. For BACE1- and MAO-B-inhibitory assays, a multimode microplate reader (SpectraMax M3, Molecular Devices, San Jose, CA, USA) was employed, providing precise readings. Analytical-grade DMSO from DEAJUNG Chemical, Korea, served as a solvent in the bioassays. Reagents and solvents, including AChE from electric eel, acetylthiocholine iodide (ATCh), BChE from equine serum, S-butyrylthiocholine iodide (BTCh), 5,5′-dithiobis [2-nitrobenzoic acid] […] Additionally, the BACE1-inhibitory assay utilized the BACE1 (β-secretase) FRET assay kit from PanVera® Corporation, Madison, USA, while the MAO-B-inhibitory assay employed the MAO-B Inhibitor Screening Kit (Fluorometric) ab284511 from Abcam plc Co., Cambridge, UK.
(§2) The inhibitory activities against cholinesterases (AChE and BChE) were evaluated using a spectrophotometric method previously developed by Ellman et al.. Specifically, ATCh and BTCh were used as substrates to measure the inhibitory effects on AChE and BChE, respectively. The assay mixture consisted of 140 μL of 0.1 M sodium phosphate buffer at pH 7.8, 20 μL of a 0.38 U/mL solution of either AChE or BChE, and 20 μL of the test sample solution. This mixture was thoroughly mixed and then incubated at room temperature for 15 min. […] Reactions were initiated by adding 10 μL of 0.5 mM DTNB and 10 μL of either 0.6 mM ATCh or BTCh. ChE-inhibitory activity was monitored by measuring the formation of the yellow 5-thio-2-nitrobenzoate anion at 412 nm over 15 min (Epoch, BioTek, Winooski, VT, USA), resulting from the reaction of DTNB and thiocholine released from ATCh or BTCh. All reactions were conducted in 96-well microplates and performed in triplicate. The percentage of inhibition (%) was determined using the following formula: inhibition (%)={(Ac−As)/Ac}×100 , where Ac represents the enzyme activity in the absence of the test sample, and As represents the enzyme activity in the presence of the test sample. The ChE-inhibitory activities of each sample were quantified in terms of IC50, which was calculated from the log–dose inhibition curve.

BACE1 = target: T2, BACE1 (Homo sapiens, UniProt P56817); assay: BACE1 (β-secretase) FRET inhibitory assay; assay type: biochemical
T2 construct: purchased PanVera Corporation, Madison, WI, USA P2985
Description: The BACE1 inhibition assay was conducted using the BACE1 (β-secretase) FRET Assay Kit, Red Protocol, part number P2985 (PanVera® Corporation, Madison, WI, USA), following the manufacturer’s recommended protocol with minor modifications. The assay mixture consisted of 10 μL of BACE1 (1.0 U/mL), 10 μL of substrate (750 nM Rh-[…]-Quencher in 50 mM ammonium bicarbonate), the assay buffer (50 mM sodium acetate, pH 4.5), and 10 μL of the test samples. […] The reaction mixture was incubated for 60 min at room temperature in darkness. Before measurement, a stop solution (2.5 M sodium acetate) was added to halt the reaction. BACE1 enzyme activity was assessed by monitoring the proteolysis of two fluorophores (Rh-[…]-Quencher), forming the fluorescent donor (Rh-EVNL) with increased fluorescence wavelengths at 530–545 nm (excitation) and 570–590 nm (emission), respectively. All reactions were recorded in black 96-well microplates and performed in triplicate. The percentage of inhibition (%) was calculated using the following formula: inhibition (%)=[1−(S60−S0)/(C60−C0)]×100 , where C60 represents the fluorescence of the control after incubation, C0 represents the initial fluorescence of the control, S60 represents the fluorescence of the tested sample after incubation, and S0 represents the initial fluorescence of the tested sample. The BACE1-inhibitory activities of each sample were quantified in terms of IC50, which was determined from the log–dose inhibition curve.

MAO-B = target: T3, MAO-B (Homo sapiens, UniProt P27338); assay: MAO-B inhibitor screening kit (fluorometric) assay; assay type: biochemical; details: isolated compounds; mean ± SD, n = 3; ND = no detection using test concentration
T3 construct: purchased Abcam plc, Cambridge, UK ab284511
T3 sequence (P27338 1-520): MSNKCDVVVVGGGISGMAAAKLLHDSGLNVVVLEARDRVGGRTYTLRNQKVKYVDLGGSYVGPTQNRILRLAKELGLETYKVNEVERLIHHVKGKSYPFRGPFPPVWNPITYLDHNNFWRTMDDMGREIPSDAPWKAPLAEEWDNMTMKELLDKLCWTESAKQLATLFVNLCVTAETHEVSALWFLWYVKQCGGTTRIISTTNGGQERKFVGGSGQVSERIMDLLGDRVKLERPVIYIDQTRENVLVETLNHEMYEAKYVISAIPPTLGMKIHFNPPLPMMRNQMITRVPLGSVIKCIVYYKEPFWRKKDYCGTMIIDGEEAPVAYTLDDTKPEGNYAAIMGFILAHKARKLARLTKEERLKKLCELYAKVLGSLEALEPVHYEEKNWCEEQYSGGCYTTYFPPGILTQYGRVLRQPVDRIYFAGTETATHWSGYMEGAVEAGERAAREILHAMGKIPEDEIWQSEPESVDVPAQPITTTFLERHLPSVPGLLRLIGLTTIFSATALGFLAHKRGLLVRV
Description: The MAO-B-inhibition assay was conducted using the MAO-B Inhibitor Screening Kit (Fluorometric) ab284511 (Abcam plc, Cambridge, UK), following the manufacturer’s recommended protocol with minor modifications. The enzyme solution (50 µL) and the test sample (10 µL) were adjusted as per the manual instructions. […] After mixing, samples and enzymes were incubated at 25 °C for 10 min. Subsequently, 40 μL of MAO-B substrate (comprising MAO-B assay buffer, MAO substrate, developer, and OxiRed probe) was added, followed by further incubation at 25 °C for 5 min. Fluorescence was measured using enzyme-linked immunosorbent assay within 40 min with dynamic fluorescence (Ex/Em = 535/587 nm). All reactions were recorded in black 96-well microplates and performed in triplicate. The slope for all samples, including the enzyme control (EC), was calculated by dividing the net ΔRFU (RFU2–RFU1) values by the time Δt (T2 − T1). The % relative inhibition was computed as follows: % relative inhibition=(slope of EC−slope of S)/slope of EC×100 . The MAO-B-inhibitory activities of each sample were quantified in terms of IC50, as determined from the log–dose inhibition curve.

BChE from equine serum = target: T4, BChE from equine serum (Equus caballus, UniProt P81908); assay: biochemical; assay type: biochemical
T4 construct: BChE from equine serum; purchased Sigma-Aldrich Co., St. Louis, USA; host or cells: equine serum
Description: as §1, §2

[1] = system: cultured cortical neurons; set-up: method as in PMID 26299900; details: cited from earlier work
sAPPβ = assay: Western blot of sAPPβ levels in APP-CHO cells; assay type: cell-based, Chinese hamster; details: 24 h; for reduction of sAPPβ levels compared to DMSO-treated controls: 1.0 μM
Description: (§3) APP-CHO cells were seeded in six-well plates at a density of 6 × 10^5 cells/1000 μL of medium per well and incubated at 37 °C overnight for cell attachment. Then, the medium was replaced with FBS-free RPMI 1640 for 1 h, followed by treatment with test samples at 37 °C. After 24 h, the cells were washed with PBS and lysed in Laemmli sample buffer. The collected cell lysates were boiled at 100 °C for 10 min. For Western blot analysis, 20 μg of proteins were separated by 7.5% SDS-PAGE and transferred to a PVDF membrane using Trans-Blot® Turbo TM (Bio-Rad, Hercules, CA, USA). The membrane was blocked with 5% skim milk in PBS for 1 h and incubated with primary antibodies overnight at 4 °C. The primary antibodies used were sAPPβ antibody, BACE1 antibody, and α-tubulin antibody diluted at 1:1000, 1:1000, and 1:25,000, respectively. After washing with PBS-T (0.1% Tween 20 in PBS) three times for 10 min each, secondary antibodies, diluted to 1:2500, were incubated for 1 h. Protein detection was performed using ECL solution reagent and protein visualization (ChemiDoc^TM XRS+., Bio-Rad, Hercules, CA, USA). The signal intensity of the bands was quantified and normalized to the signal intensity of the α-tubulin band. Results were expressed as a percentage of DMSO-treated control.

β-secretase = assay: Western blot of β-secretase levels in APP-CHO cells; assay type: cell-based, Chinese hamster; details: 24 h; for reduction of β-secretase levels compared to DMSO-treated controls: 1.0 μM
Description: as §3

[2] = isolated compounds, mean ± SD, n = 3, read-out: IC50 BACE1
[3] = isolated compounds, mean ± SD, n = 3, ND = no detection using test concentration, read-out: IC50 AChE
[4] = isolated compounds, mean ± SD, n = 3, ND = no detection using test concentration, read-out: IC50 BChE
[5] = isolated compounds, mean ± SD, n = 3, ND = no detection using test concentration

T2 sequence (P56817 46-501): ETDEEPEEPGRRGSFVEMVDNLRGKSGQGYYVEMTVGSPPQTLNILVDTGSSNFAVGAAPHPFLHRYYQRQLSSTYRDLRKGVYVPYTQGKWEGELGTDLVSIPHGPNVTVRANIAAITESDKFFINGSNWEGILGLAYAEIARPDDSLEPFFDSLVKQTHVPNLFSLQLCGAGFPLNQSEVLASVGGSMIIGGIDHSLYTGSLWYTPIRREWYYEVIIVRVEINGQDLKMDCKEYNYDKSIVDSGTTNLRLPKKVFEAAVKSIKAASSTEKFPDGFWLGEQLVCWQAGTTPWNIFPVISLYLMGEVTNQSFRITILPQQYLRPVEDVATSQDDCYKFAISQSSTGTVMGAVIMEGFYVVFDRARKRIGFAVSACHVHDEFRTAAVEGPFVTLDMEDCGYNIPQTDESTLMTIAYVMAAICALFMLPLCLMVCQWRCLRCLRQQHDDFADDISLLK
T1 sequence (O42275 24-633): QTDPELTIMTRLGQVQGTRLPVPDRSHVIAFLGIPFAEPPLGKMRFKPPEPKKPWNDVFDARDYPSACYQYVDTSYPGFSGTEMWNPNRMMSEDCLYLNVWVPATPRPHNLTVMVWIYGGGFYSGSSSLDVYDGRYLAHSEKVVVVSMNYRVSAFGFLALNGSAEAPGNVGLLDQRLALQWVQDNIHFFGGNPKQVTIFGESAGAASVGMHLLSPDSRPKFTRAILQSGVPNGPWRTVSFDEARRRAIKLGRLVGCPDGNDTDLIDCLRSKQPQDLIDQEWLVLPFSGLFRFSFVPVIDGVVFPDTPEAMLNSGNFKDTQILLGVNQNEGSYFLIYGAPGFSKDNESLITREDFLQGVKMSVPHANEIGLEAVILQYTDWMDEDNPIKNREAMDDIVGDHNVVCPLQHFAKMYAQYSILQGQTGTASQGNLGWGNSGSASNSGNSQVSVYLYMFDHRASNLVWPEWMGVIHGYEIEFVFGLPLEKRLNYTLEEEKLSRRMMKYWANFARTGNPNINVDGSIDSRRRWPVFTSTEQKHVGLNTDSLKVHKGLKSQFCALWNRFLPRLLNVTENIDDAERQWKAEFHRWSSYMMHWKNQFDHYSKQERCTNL
T4 sequence (P81908 whole entry): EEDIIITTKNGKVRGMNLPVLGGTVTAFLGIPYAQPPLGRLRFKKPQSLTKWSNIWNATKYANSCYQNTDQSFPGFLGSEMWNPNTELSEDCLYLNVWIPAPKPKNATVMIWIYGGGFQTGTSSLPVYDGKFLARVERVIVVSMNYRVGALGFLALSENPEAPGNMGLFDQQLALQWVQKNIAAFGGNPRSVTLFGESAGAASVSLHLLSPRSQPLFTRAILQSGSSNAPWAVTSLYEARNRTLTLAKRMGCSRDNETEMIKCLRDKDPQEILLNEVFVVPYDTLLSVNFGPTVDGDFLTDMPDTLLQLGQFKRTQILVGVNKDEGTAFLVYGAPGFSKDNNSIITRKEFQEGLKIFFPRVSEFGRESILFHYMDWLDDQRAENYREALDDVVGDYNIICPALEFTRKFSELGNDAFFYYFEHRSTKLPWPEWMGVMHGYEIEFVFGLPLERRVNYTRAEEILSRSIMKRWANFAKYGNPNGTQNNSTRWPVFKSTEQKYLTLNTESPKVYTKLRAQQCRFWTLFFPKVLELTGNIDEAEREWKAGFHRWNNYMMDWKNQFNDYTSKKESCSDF

Row | Compound | IC50 (AChE from electric eel) [µM] | IC50 (BACE1; [2]) [µM] | IC50 (MAO-B) [µM] | IC50 (AChE from electric eel; [3]) [µM] | IC50 (BChE from equine serum; [4]) [µM] | IC50 (BChE from equine serum) [µM] | other results
1 | COc1ccc2cc3[n+](cc2c1OC)CCc1cc2c(cc1-3)OCO2 [Berberine, berberine, reference compound] | 0.119 | – | – | – | – | – | –
2 | O=C(O)/C=C/c1ccc(O[C@@H]2O[C@H](CO)[C@@H](O)[C@H](O)[C@H]2O)cc1 [Compound 1, coumaric acid 4-O-β-D-glucopyranoside] | – | > 1000 | > 1000 | 33.4 ± 0.42 | 53.8 ± 1.15 | – | –
3 | O=C(O)/C=C/c1ccc(O[C@@H]2O[C@H](CO)[C@@H](O)[C@H](O)[C@H]2O)c(O)c1 [Compound 2, caffeic acid 4-O-β-D-glucopyranoside] | – | 45 ± 0.48 | 401.3 ± 2.66 | 14.77 ± 0.07 | 488 ± 10.1 | – | axonal regrowth effect on Aβ25–35-induced atrophy ([1]; 10 μM): significant axonal regrowth effects; reduction of sAPPβ expression levels (sAPPβ; 0.5 μM): 50%; reduction of β-secretase expression levels (β-secretase; 0.5 μM): 40%
4 | COc1cc(/C=C/C(=O)O)ccc1O[C@@H]1O[C@H](CO)[C@@H](O)[C@H](O)[C@H]1O [Compound 3, lavandoside] | – | 235 ± 6.86 | 155 ± 7.18 | – | – | – | IC50 AChE (AChE from electric eel; [5]): did not demonstrate cholinesterase-inhibitory activity; IC50 BChE (BChE from equine serum; [5]): did not demonstrate cholinesterase-inhibitory activity
5 | COc1cc(/C=C/C(=O)O)cc(OC)c1O[C@@H]1O[C@H](CO)[C@@H](O)[C@H](O)[C@H]1O [Compound 4, trans-p-sinapoyl-β-D-glucopyranoside] | – | 147.4 ± 0.74 | 600.9 ± 3.72 | – | 30.6 ± 0.38 | – | –
6 | C[C@@H]1O[C@@H](O[C@H]2[C@H](Oc3cc(O)c4c(=O)ccoc4c3)O[C@H](CO)[C@@H](O)[C@@H]2O)[C@H](O)[C@H](O)[C@H]1O [Compound 5, 5,7-dihydroxychromone-7-O-neohesperidoside] | – | > 1000 | – | > 1000 | 38.8 ± 0.71 | – | –
7 | C[C@@H]1O[C@@H](O[C@H]2[C@H](Oc3cc(O)c4c(c3)O[C@H](c3ccc(O)c(O)c3)CC4=O)O[C@H](CO)[C@@H](O)[C@@H]2O)[C@H](O)[C@H](O)[C@H]1O [Compound 8, neoeriocitrin] | 31.65 ± 0.14 | – | 2.64 ± 0.016 | – | – | 30.04 ± 0.23 | IC50 (BACE1): 13.7 ± 0.14 µM; axonal regrowth effect on Aβ25–35-induced atrophy ([1]; 1 and 10 μM): significant axonal regrowth effects
8 | C[C@@H]1O[C@@H](O[C@H]2[C@H](Oc3cc(O)c4c(c3)O[C@H](c3ccc(O)cc3)CC4=O)O[C@H](CO)[C@@H](O)[C@@H]2O)[C@H](O)[C@H](O)[C@H]1O [Compound 9, naringin] | 124 ± 35.3 | 64.95 ± 0.17 | 51.26 ± 0.14 | – | – | 252 ± 12.3 | reduction of sAPPβ levels compared to DMSO-treated controls (sAPPβ): 30%; reduction of β-secretase levels compared to DMSO-treated controls (β-secretase): 40% and 30%
9 | COc1ccc([C@@H]2CC(=O)c3c(O)cc(O[C@@H]4O[C@H](CO[C@@H]5O[C@@H](C)[C@H](O)[C@@H](O)[C@H]5O)[C@@H](O)[C@H](O)[C@H]4O)cc3O2)cc1O [Compound 10, hesperidin] | 57.7 ± 5.96 | 55.72 ± 0.17 | 98.77 ± 0.14 | – | – | 331.77 ± 0.14 | reduction of sAPPβ levels compared to DMSO-treated controls (sAPPβ): 30%; reduction of β-secretase levels compared to DMSO-treated controls (β-secretase): 30%

Reference: article PMC11358882, “Neuroprotective Effects of Phenolic Constituents from Drynariae Rhizoma” (Pharmaceuticals, 2024)
